{"source": "paper PMC12598805", "about": "“Crystal Structure–Activity Relationship of Some MeO Phenylacrylonitriles: Dual Antimicrobial–Cytotoxic Effects and in Silico Perspectives” (ChemistryOpen, 2025)", "format_in_all_cases": "cell-based", "key": {"[1]": {"tested_on": "Bacillus cereus (ATCC-10876)", "test": "Agar diffusion, zone of inhibition", "settings": "B.cereus, antibiotics at 5 mg mL^−1", "description": "(§1) The antibacterial and antifungal activities were reported utilizing the method described by the Clinical & Laboratory Standards Institute.^[ [31], [32] ^] Agar diffusion method was used to determine the antimicrobial activity of the synthesized substances. The media used were mueller hinton agar (MHA) for bacteria and sabouraud‐dextrose agar (SDA) for fungi (Merck), as recommended by the manufacturer.\n(§2) The synthesized compounds were initially investigated for their antimicrobial activity to elucidate the potential therapeutic utility against various pathogenic microbes using the agar plate diffusion method. The compounds were tested at a concentration of 50 mg mL^−1, and the antibiotics (ampicillin, kanamycin, and amphotericin B) were used at 5 mg mL^−1. […] K.pneumoniae and B.cereus were resistant to ampicillin, while they were susceptible to kanamycin with inhibition values of 30 and 26 mm, respectively. No antimicrobial activity of the compounds was observed against E.faecalis, S.typhimurium, K.pneumoniae, and for the fungus compared to Amphotericin B (20 mm).\nBacillus cereus (ATCC-10876) […]\n(§3) ATCC: American Type Culture Collection; NRRL: Northern Regional Research Laboratory The compounds 2(a-c) obtained could only be completely solubilised with dimethyl sulphoxide (DMSO) and the highest possible stock solutions of 50 mg.mL-1 were prepared. To these wells 50 μl of the previously prepared substances were transferred using sterile micropipette tips. For comparison, Ampicillin and kanamycin antibiotics for bacteria and Amphotericin B antibiotics for fungus were used as positive controls and DMSO was used as negative control. The prepared petri plates were kept at +4°C for about 1 hour and then the bacterial cultures were incubated at 37°C for 18-24 hours and mould cultures at 27-30°C for 48-72 hours. The zones formed were measured millimetrically with callipers. The experiments were performed with three repetitions. […]"}, "[2]": {"tested_on": "Bacillus subtilis (ATCC-19659)", "test": "Agar diffusion, zone of inhibition", "settings": "B.subtilis, antibiotics at 5 mg mL^−1", "description": "as §1\nas §2, with “mm). […]” for “mm).”\nas §3"}, "[3]": {"tested_on": "Salmonella typhimurium (NRRL-B-4420)", "test": "Agar diffusion, zone of inhibition", "settings": "Salmonella enterica; S.typhimurium; antibiotics at 5 mg mL^−1", "description": "as §1\nas §2, with “mm). […]” for “mm).”\nSalmonella typhimurium (NRRL-B-4420) […]\nas §3"}, "[4]": {"tested_on": "Micrococcus luteus (NRRL-B-1018)", "test": "Broth microdilution MIC", "settings": "NRRLB1018, M.luteus", "description": "(§4) Micrococcus luteus (NRRL-B-1018) […]\n(§5) ATCC: American Type Culture Collection; NRRL: Northern Regional Research Laboratory The compounds 2(a-c) obtained could only be completely solubilised with dimethyl sulphoxide (DMSO) and the highest possible stock solutions of 50 mg.mL-1 were prepared. […]\n(§6) 3.1. Determination of Minimum Inhibition Concentration (MIC)\n(§7) The minimum inhibition concentration (MIC) values of the compounds 2(a-c) against the test bacteria used in the study were determined according to the broth microdilution method.[1-2] MHB or SDB was used as test medium and bacterial and yeast suspensions were prepared at 0.5 Mc Farland concentration for each test bacteria. Double layer serial dilutions were prepared in \"U\" type 96-well microtiter plates. Medium+bacteria suspensions containing only medium in the first row, medium+bacteria in the second row and the final concentrations of the synthesised substances in the other rows between 25 mg.mL-1 and […] were added to the wells with a final volume of 200\n(§8) μL. Ampicillin, Kanamycin and Amphotericin B standard antibiotics were used as positive controls.\n(§9) Bacteria were incubated at 37±0.1 °C and C. albicans at 30±0.1 °C for 24-48 hours and the lowest concentration without growth was determined as MIC. Tests were performed in two parallel runs and mean values were given as a result. […]"}, "[5]": {"tested_on": "Enterococcus faecalis (ATCC 29212)", "test": "MBC by sub-culture from wells without growth", "settings": "ATCC29212, E.faecalis", "description": "(§10) Enterococcus faecalis (ATCC 29212) […]\nas §5, §6, §7, §8, §9"}, "[6]": {"tested_on": "Escherichia coli (ATCC 25922)", "test": "MBC by sub-culture from wells without growth", "settings": "ATCC25922, E.coli", "description": "(§11) Escherichia coli (ATCC 25922) […]\nas §5, §6, §7, §8, §9"}, "[7]": {"tested_on": "Staphylococcus aureus (ATCC 29213)", "test": "Agar diffusion, zone of inhibition", "settings": "S.aureus, antibiotics at 5 mg mL^−1", "description": "as §1\nas §2, with “mm). […]” for “mm).”\n(§12) Staphylococcus aureus (ATCC 29213) […]\nas §3"}, "[8]": {"tested_on": "Staphylococcus aureus (ATCC 29213)", "test": "MBC by sub-culture from wells without growth", "settings": "ATCC29213, S.aureus", "description": "as §12, §5, §6, §7, §8\n(§13) Bacteria were incubated at 37±0.1 °C and C. albicans at 30±0.1 °C for 24-48 hours and the lowest concentration without growth was determined as MIC. Tests were performed in two parallel runs and mean values were given as a result. In order to estimate “the minimum bactericidal/fungicidal concentrations (MBC/MFC) of the synthesised acrylonitrile derivatives “needed to indicate […] killing of the original inoculum,” 10 μl was taken from the wells with no observed growth and further sub-cultured onto their agar media (MHA and SDA for bacterial and fungal strains, respectively).[3] […]"}, "[9]": {"tested_on": "Bacillus subtilis (ATCC-19659)", "test": "Broth microdilution MIC", "settings": "ATCC19659", "description": "as §5, §6, §7, §8, §9"}, "[10]": {"tested_on": "Escherichia coli (ATCC 25922)", "test": "Agar diffusion, zone of inhibition", "settings": "antibiotics at 5 mg mL^−1", "description": "as §1\nas §2, with “mm). […]” for “mm).”\nas §11, §3"}, "[11]": {"tested_on": "Enterococcus faecalis (ATCC 29212)", "test": "Broth microdilution MIC", "settings": "ATCC29212, E.faecalis", "description": "as §10, §5, §6, §7, §8, §9"}, "[12]": {"tested_on": "Micrococcus luteus (NRRL-B-1018)", "test": "MBC by sub-culture from wells without growth", "settings": "NRRLB1018, M.luteus", "description": "as §4, §5, §6, §7, §8, §13"}, "[13]": {"tested_on": "Staphylococcus aureus (ATCC 29213)", "test": "Broth microdilution MIC", "settings": "ATCC29213, S.aureus", "description": "as §12, §5, §6, §7, §8, §9"}, "[14]": {"tested_on": "Enterococcus faecalis (ATCC 29212)", "test": "Agar diffusion, zone of inhibition", "settings": "ATCC29212, E.faecalis, antibiotics at 5 mg mL^−1", "description": "as §1\nas §2, with “mm). […]” for “mm).”\nas §10, §3"}, "[15]": {"tested_on": "Pseudomonas aeruginosa (ATCC 27853)", "test": "MBC by sub-culture from wells without growth", "settings": "ATCC27853, P.aeruginosa", "description": "(§14) Pseudomonas aeruginosa (ATCC 27853) […]\nas §5, §6, §7, §8, §13"}, "[16]": {"tested_on": "Micrococcus luteus (NRRL-B-1018)", "test": "Agar diffusion, zone of inhibition", "settings": "M.luteus, antibiotics at 5 mg mL^−1", "description": "as §1\nas §2, with “mm). […]” for “mm).”\nas §4, §3"}, "[17]": {"tested_on": "Bacillus subtilis (ATCC-19659)", "test": "MBC by sub-culture from wells without growth", "settings": "ATCC19659, B.subtilis", "description": "as §5, §6, §7, §8, §9"}, "[18]": {"tested_on": "Escherichia coli (ATCC 25922)", "test": "Broth microdilution MIC", "settings": "ATCC25922, E.coli", "description": "as §11, §5, §6, §7, §8, §9"}, "[19]": {"tested_on": "Pseudomonas aeruginosa (ATCC 27853)", "test": "Agar diffusion, zone of inhibition", "settings": "P.aeruginosa, antibiotics at 5 mg mL^−1", "description": "as §1\nas §2, with “mm). […]” for “mm).”\nas §14, §3"}, "[20]": {"tested_on": "Pseudomonas aeruginosa (ATCC 27853)", "test": "Broth microdilution MIC", "settings": "ATCC27853, P.aeruginosa", "description": "as §14, §5, §6, §7, §8, §9"}, "[21]": {"tested_on": "Klebsiella pneumoniae (ATCC-70063)", "test": "Agar diffusion, zone of inhibition", "settings": "K.pneumoniae, antibiotics at 5 mg mL^−1", "description": "as §1\nas §2, with “mm). […]” for “mm).”\nKlebsiella pneumoniae (ATCC-70063)\nas §3"}}}
{"smiles": "CC1(C)S[C@@H]2[C@H](NC(=O)[C@H](N)c3ccccc3)C(=O)N2[C@H]1C(=O)O", "note": "[Ampicillin, reference compound]", "values": [{"measurement": "zone of inhibition", "setting": "[1]", "result": "resistant"}, {"measurement": "zone of inhibition at 5 mg/mL", "setting": "[1]; Bacillus cereus, ATCC10876", "result": "< 6", "unit": "mm"}, {"measurement": "zone of inhibition", "setting": "[2]", "result": "32 ± 1.41", "unit": "mm"}, {"measurement": "zone of inhibition at 5 mg/mL", "setting": "[2]; Bacillus subtilis, ATCC19659", "result": 32, "unit": "mm"}, {"measurement": "zone of inhibition at 5 mg/mL", "setting": "[3]", "result": 25, "unit": "mm"}, {"measurement": "MIC", "setting": "[4]", "result": 31.2, "unit": "mg/L"}, {"measurement": "MBC", "setting": "[5]", "result": 250, "unit": "mg/L"}, {"measurement": "MBC", "setting": "[6]", "result": 31.2, "unit": "mg/L"}, {"measurement": "zone of inhibition", "setting": "[7]", "result": "24 ± 1.41", "unit": "mm"}, {"measurement": "zone of inhibition at 5 mg/mL", "setting": "[7]; Staphylococcus aureus, ATCC29213", "result": 24, "unit": "mm"}, {"measurement": "MBC", "setting": "[8]", "result": 250, "unit": "mg/L"}, {"measurement": "MIC", "setting": "[9]", "result": 12500, "unit": "mg/L"}, {"measurement": "zone of inhibition", "setting": "[10]; E.coli", "result": "25 ± 0.71", "unit": "mm"}, {"measurement": "zone of inhibition at 5 mg/mL", "setting": "[10]; Escherichia coli, ATCC25922, E.coli", "result": 23, "unit": "mm"}, {"measurement": "MIC", "setting": "[11]", "result": 250, "unit": "mg/L"}, {"measurement": "MBC", "setting": "[12]", "result": 31.2, "unit": "mg/L"}, {"measurement": "MIC", "setting": "[13]", "result": 250, "unit": "mg/L"}, {"measurement": "zone of inhibition at 5 mg/mL", "setting": "[14]", "result": "34 ± 0.71", "unit": "mm"}, {"measurement": "MBC", "setting": "[15]", "result": 62.5, "unit": "mg/L"}, {"measurement": "zone of inhibition", "setting": "[16]", "result": "44 ± 5.66", "unit": "mm"}, {"measurement": "zone of inhibition at 5 mg/mL", "setting": "[16]; Micrococcus luteus, NRRLB1018", "result": 44, "unit": "mm"}, {"measurement": "MBC", "setting": "[17]", "result": 25000, "unit": "mg/L"}, {"measurement": "MIC", "setting": "[18]", "result": 31.2, "unit": "mg/L"}, {"measurement": "zone of inhibition", "setting": "[19]", "result": "30 ± 0.71", "unit": "mm"}, {"measurement": "zone of inhibition at 5 mg/mL", "setting": "[19]; Pseudomonas aeruginosa, ATCC27853", "result": 30, "unit": "mm"}, {"measurement": "MIC", "setting": "[20]", "result": 62.5, "unit": "mg/L"}, {"measurement": "zone of inhibition", "setting": "[21]", "result": "resistant"}, {"measurement": "zone of inhibition at 5 mg/mL", "setting": "[21]; Klebsiella pneumoniae, ATCC70063", "result": "< 6", "unit": "mm"}]}
